Experimental data published in patent US11596639B2, “Substituted indole Mcl-1 inhibitors” (Vanderbilt University, priority 2016, dated 2023).
Where two headings read alike, the source gives them in different places.

Legend:
[1] = test system: H929 human cancer cell lines; assay: Cellular viability / proliferation (Cell TiterGlo, 72 h); type: cell-based
Summary of the method: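 Compounds were added as 2-fold serial dilutions from 50 μM (final DMSO <1%) to H929 cells seeded 1,000 per well in 10% FBS medium one day earlier.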

Mcl-1 = Mcl-1 (Homo sapiens (Human), UniProt Q07820); assay: Fluorescence polarization anisotropy (FPA) competition assay, FITC-Bak or FITC-Bim BH3 peptide; type: binding; conditions: read-out: Ki for Inhibition of Mcl-1 by FPA assay
Sequence of Mcl-1 (Q07820 172-327): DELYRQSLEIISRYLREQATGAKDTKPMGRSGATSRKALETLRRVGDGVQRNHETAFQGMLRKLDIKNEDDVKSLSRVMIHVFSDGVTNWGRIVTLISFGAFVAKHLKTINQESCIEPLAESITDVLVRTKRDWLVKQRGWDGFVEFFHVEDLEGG

[2] = Homo sapiens, NCI-H929, 72 h, read-out: GI50 on cellular proliferation of H929 human cancer cell lines, H929 cells, 72 h, Cell TiterGlo, 10% FBS

| SMILES | GI50 [1, 2] | Ki (Mcl-1) | GI50 ([1]; H929 cells, 72 h, Cell TiterGlo, 10% FBS, read-out: GI50 on cellular proliferation of H929 human cancer cell lines) |
| --- | --- | --- | --- |
| Cc1cc(OCCCc2c3n(c4c(-c5c(C)nn(C)c5C)c(Cl)ccc24)[C@H](C)CN(c2cccc4cc(C(=O)O)n(CC5CCO5)c24)C3=O)cc(C)c1Cl (stereo partly drawn) [Example 374, 7-((R)-7-Chloro-10-(3-(4-chloro-3,5-dimethylphenoxy)propyl)-4-methyl-1-oxo-6-(1,3,5-trimethyl-1H-pyrazol-4-yl)-3,4-dihydropyrazino[1,2-a]indol-2(1H)-yl)-1-(oxetan-2-ylmethyl)-1H-indole-2-carboxylic acid] | 1500 nM | 3.7 nM |  |
| Cc1cc(OCCCc2c3n(c4c(-c5c(C)ncnc5C)c(Cl)ccc24)CCCN(c2ccnc4ccc(C(=O)O)cc24)C3=O)cc(C)c1Cl [Example 220, 4-[8-Chloro-11-[3-(4-chloro-3,5-dimethyl-phenoxy)propyl]-7-(4,6-dimethylpyrimidin-5-yl)-1-oxo-4,5-dihydro-3H-[1,4]diazepino[1,2-a]indol-2-yl]quinoline-6-carboxylic acid] | 2000 nM | < 1 nM |  |
| COc1ccc(N2C[C@@H](C)n3c(c(CCCOc4cc(C)c(Cl)c(C)c4)c4ccc(Cl)c(-c5c(C)nn(C)c5C)c43)C2=O)c2cc(C(=O)O)n(C)c12 [Example 344, (M, R)-4-(7-Chloro-10-(3-(4-chloro-3,5-dimethylphenoxy)propyl)-4-methyl-1-oxo-6-(1,3,5-trimethyl-1H-pyrazol-4-yl)-3,4-dihydropyrazino[1,2-a]indol-2(1H)-yl)-7-methoxy-1-methyl-1H-indole-2-carboxylic acid] |  | < 1 nM | 1300 nM |
| Cc1cc(N2C[C@@H](C)n3c(c(CCCOc4cc(C)c(Cl)c(C)c4)c4ccc(Cl)c(-c5c(C)nn(C)c5C)c43)C2=O)c2c(c1)cc(C(=O)O)n2CC1CCN(C)C1 (stereo partly drawn) [Example 330, 7-((R)-7-Chloro-10-(3-(4-chloro-3,5-dimethylphenoxy)propyl)-4-methyl-1-oxo-6-(1,3,5-trimethyl-1H-pyrazol-4-yl)-3,4-dihydropyrazino[1,2-a]indol-2(1H)-yl)-5-methyl-1-((1-methylpyrrolidin-3-yl)methyl)-1H-indole-2-carboxylic acid] | 2300 nM | 1.3 nM |  |
| Cc1cc(OCCCc2c3n(c4c(-c5c(C)nn(C)c5C)c(Cl)ccc24)[C@H](C)CN(c2cc(C(=O)O)c4cc[nH]c4c2)C3=O)cc(C)c1Cl [Example 101, (R)-6-(7-chloro-10-(3-(4-chloro-3,5-dimethylphenoxy)propyl)-4-methyl-1-oxo-6-(1,3,5-trimethyl-1H-pyrazol-4-yl)-3,4-dihydropyrazino[1,2-a]indol-2(1H)-yl)-1H-indole-4-carboxylic acid] | 2100 nM | < 1 nM |  |
| Cc1noc(-c2ccc3c(c2)c(N2C[C@@H](C)n4c(c(CCCOc5cc(C)c(Cl)c(C)c5)c5ccc(Cl)c(-c6c(C)nn(C)c6C)c54)C2=O)cn3C)n1 [Example 393, (R)-7-Chloro-10-(3-(4-chloro-3,5-dimethylphenoxy)propyl)-4-methyl-2-(1-methyl-5-(3-methyl-1,2,4-oxadiazol-5-yl)-1H-indol-3-yl)-6-(1,3,5-trimethyl-1H-pyrazol-4-yl)-3,4-dihydropyrazino[1,2-a]indol-1(2H)-one] | 1200 nM | 2.3 nM |  |
| Cc1cc(OCCCc2c3n(c4c(-c5c(C)nn(C)c5C)c(Cl)ccc24)[C@H](C)CN(c2cn4cccc(C(=O)O)c4n2)C3=O)cc(C)c1Cl [Example 112, (R)-2-(7-chloro-10-(3-(4-chloro-3,5-dimethylphenoxy)propyl)-4-methyl-1-oxo-6-(1,3,5-trimethyl-1H-pyrazol-4-yl)-3,4-dihydropyrazino[1,2-a]indol-2(1H)-yl)imidazo[1,2-a]pyridine-8-carboxylic acid] | 5300 nM | 3.3 nM |  |
| Cc1cc(OCCCc2c3n(c4c(-c5c(C)nn(C)c5C)c(Cl)ccc24)[C@H](C)CN(c2cccc4cc(C(=O)O)n(Cc5cccnc5)c24)C3=O)cc(C)c1Cl [Example 245, 7-[(4R)-7-chloro-10-[3-(4-chloro-3,5-dimethyl-phenoxy)propyl]-4-methyl-1-oxo-6-(1,3,5-trimethylpyrazol-4-yl)-3,4-dihydropyrazino[1,2-a]indol-2-yl]-1-(3-pyridylmethyl)indole-2-carboxylic acid] | 900 nM | < 1 nM |  |
| Cc1cc(OCCCc2c3n(c4c(-c5c(C)nn(C)c5C)c(Cl)ccc24)[C@H](C)CN(c2ccc4cnoc4c2)C3=O)cc(C)c1Cl [Example 115, (R)-2-(benzo[d]isoxazol-6-yl)-7-chloro-10-(3-(4-chloro-3,5-dimethylphenoxy)propyl)-4-methyl-6-(1,3,5-trimethyl-1H-pyrazol-4-yl)-3,4-dihydropyrazino[1,2-a]indol-1(2H)-one] | 5100 nM | 3.1 nM |  |
| Cc1cc(OCCCc2c3n(c4c(-c5c(C)nn(C)c5C)c(Cl)ccc24)CCCN(c2cc(C(=O)O)cc4nn(CCN(C)C)cc24)C3=O)cc(C)c1Cl [Example 28, 4-[8-chloro-11-[3-(4-chloro-3,5-dimethyl-phenoxy)propyl]-1-oxo-7-(1,3,5-trimethylpyrazol-4-yl)-4,5-dihydro-3H-[1,4]diazepino[1,2-a]indol-2-yl]-2-[2-(dimethylamino)ethyl]indazole-6-carboxylic acid] | 3700 nM | 1.8 nM |  |
| Cc1cc(OCCCc2c3n(c4c(-c5c(C)nn(C)c5C)c(Cl)ccc24)CCCN(c2cc(C(=O)O)cc4nn(C)cc24)C3=O)cc(C)c1Cl [Example 36, 4-[8-Chloro-11-[3-(4-chloro-3,5-dimethyl-phenoxy)propyl]-1-oxo-7-(1,3,5-trimethylpyrazol-4-yl)-4,5-dihydro-3H-[1,4]diazepino[1,2-a]indol-2-yl]-2-methyl-indazole-6-carboxylic acid] | 2600 nM | < 1 nM |  |
| Cc1cc(OCCCc2c3n(c4c(-c5c(C)nn(C)c5C)c(Cl)ccc24)[C@H](C)CN(c2cn(C)c4ccc(S(=O)(=O)N5CCNCC5)cc24)C3=O)cc(C)c1Cl [Example 265, (R)-7-chloro-10-(3-(4-chloro-3,5-dimethylphenoxy)propyl)-4-methyl-2-(1-methyl-5-(piperazin-1-ylsulfonyl)-1H-indol-3-yl)-6-(1,3,5-trimethyl-1H-pyrazol-4-yl)-3,4-dihydropyrazino[1,2-a]indol-1(2H)-one] | 1500 nM | 8.2 nM |  |
| Cc1cc(OCCCc2c3n(c4c(-c5c(C)nn(C)c5C)c(Cl)ccc24)[C@H](C)[C@@H](C)N(c2ccc(C(=O)O)cc2)C3=O)cc(C)c1Cl [Example 142, 4-((3R,4R)-7-chloro-10-(3-(4-chloro-3,5-dimethylphenoxy)propyl)-3,4-dimethyl-1-oxo-6-(1,3,5-trimethyl-1H-pyrazol-4-yl)-3,4-dihydropyrazino[1,2-a]indol-2(1H)-yl)benzoic acid] | 7400 nM | 3.8 nM |  |
| Cc1cc(N2C[C@@H](C)n3c(c(CCCOc4cc(C)c(Cl)c(C)c4)c4ccc(Cl)c(-c5c(C)nn(C)c5C)c43)C2=O)c2cc(C(=O)O)n(C)c2c1 [Example 317, (R)-4-(7-Chloro-10-(3-(4-chloro-3,5-dimethylphenoxy)propyl)-4-methyl-1-oxo-6-(1,3,5-trimethyl-1H-pyrazol-4-yl)-3,4-dihydropyrazino[1,2-a]indol-2(1H)-yl)-1,6-dimethyl-1H-indole-2-carboxylic acid] | 720 nM | < 1 nM |  |
| Cc1cc(OCCCc2c3n(c4c(-c5c(C)nn(C)c5C)c(Cl)ccc24)[C@H](C)CN(c2cn(C)c4cc(C(=O)O)ccc24)C3=O)cc(C)c1Cl [Example 88, (R)-3-(7-Chloro-10-(3-(4-chloro-3,5-dimethylphenoxy)propyl)-4-methyl-1-oxo-6-(1,3,5-trimethyl-1H-pyrazol-4-yl)-3,4-dihydropyrazino[1,2-a]indol-2(1H)-yl)-1-methyl-1H-indole-6-carboxylic acid] | 290 nM | < 1 nM |  |
| Cc1cc(OCCCc2c3n(c4c(-c5c(C)ncnc5C)c(Cl)ccc24)[C@H](C)CN(c2cn(C)c4cc(C(=O)O)ccc24)C3=O)cc(C)c1Cl [Example 153, 3-[(4R)-7-chloro-10-[3-(4-chloro-3,5-dimethyl-phenoxy)propyl]-6-(4,6-dimethylpyrimidin-5-yl)-4-methyl-1-oxo-3,4-dihydropyrazino[1,2-a]indol-2-yl]-1-methyl-indole-6-carboxylic acid] | 410 nM | < 1 nM |  |
| CC[C@@H]1Cn2c(c(CCCOc3cc(C)c(Cl)c(C)c3)c3ccc(Cl)c(-c4c(C)nn(C)c4C)c32)C(=O)N1Cc1ccc(C(=O)O)cn1 [Example 20, (R)-6-((7-chloro-10-(3-(4-chloro-3,5-dimethylphenoxy)propyl)-3-ethyl-1-oxo-6-(1,3,5-trimethyl-1H-pyrazol-4-yl)-3,4-dihydropyrazino[1,2-a]indol-2(1H)-yl)methyl)nicotinic acid] | 6500 nM | 2.5 nM |  |
| Cc1cc(OCCCc2c3n(c4c(-c5c(C)nn(C)c5C)c(Cl)ccc24)[C@H](C)CN(c2cccc4cc(C(=O)O)n(CC5COC5)c24)C3=O)cc(C)c1Cl [Example 383, (R)-7-(7-Chloro-10-(3-(4-chloro-3,5-dimethylphenoxy)propyl)-4-methyl-1-oxo-6-(1,3,5-trimethyl-1H-pyrazol-4-yl)-3,4-dihydropyrazino[1,2-a]indol-2(1H)-yl)-1-(oxetan-3-ylmethyl)-1H-indole-2-carboxylic acid] | 1500 nM | 2.6 nM |  |
| Cc1cc(OCCCc2c3n(c4c(-c5c(C)n[nH]c5C)c(Cl)ccc24)[C@H](C)CN(c2cn(C)c4ccc(C(=O)O)cc24)C3=O)cc(C)c1Cl [Example 129, (R)-3-(7-chloro-10-(3-(4-chloro-3,5-dimethylphenoxy)propyl)-6-(3,5-dimethyl-1H-pyrazol-4-yl)-4-methyl-1-oxo-3,4-dihydropyrazino[1,2-a]indol-2(1H)-yl)-1-methyl-1H-indole-5-carboxylic acid] | 550 nM | < 1 nM |  |
